Results as given in patent US9187471B2, “Pyrido [4,3-b] indole and pyrido [3,4-b] indole derivatives and methods of use” (Medivation Technologies, Inc., priority 2010, dated 2015).

Columns and labels:
[1] = target: T1, human recombinant histamine H1 receptor (Homo sapiens, UniProt P35367); experiment: Histamine H1 radioligand binding ([3H]Pyrilamine); settings: read-out: Histamine H1 Binding (1 μM), percent inhibition of specific binding; compound at 1 μM; 1.2 nM [3H]Pyrilamine
T1 construct: expressed in transfected cells; host or cells: CHO-K1
T1 sequence (P35367 whole entry): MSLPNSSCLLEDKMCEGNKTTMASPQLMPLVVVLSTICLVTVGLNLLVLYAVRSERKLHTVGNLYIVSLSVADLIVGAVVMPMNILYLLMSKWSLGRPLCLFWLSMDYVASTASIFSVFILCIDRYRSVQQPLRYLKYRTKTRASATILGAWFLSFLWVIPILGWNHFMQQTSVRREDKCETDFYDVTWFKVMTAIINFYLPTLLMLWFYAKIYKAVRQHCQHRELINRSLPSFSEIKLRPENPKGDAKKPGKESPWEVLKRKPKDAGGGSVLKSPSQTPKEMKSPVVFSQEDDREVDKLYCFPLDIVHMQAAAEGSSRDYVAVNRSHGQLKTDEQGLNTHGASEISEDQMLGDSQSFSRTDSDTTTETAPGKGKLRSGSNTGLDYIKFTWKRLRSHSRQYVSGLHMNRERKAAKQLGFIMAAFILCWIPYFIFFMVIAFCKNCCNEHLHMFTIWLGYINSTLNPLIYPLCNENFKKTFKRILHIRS
Description: To evaluate in radioligand binding assays the activity of compounds of the invention, human recombinant histamine H1 receptor expressed in Chinese hamster ovary (CHO) K1 cells (De Backer, M. et al, Biochem. Biophys. Res. Comm. 197(3):1601, 1993) in a modified Tris-HCl buffer (50 mM Tris-HCl, pH 7.4, 2 mM MgCl2, 100 mM NaCl, 250 mM Sucrose) was used. […] Non-specific binding was estimated in the presence of 1 μM Pyrilamine. Receptor proteins were filtered and washed, the filters were then counted to determine [^3H]Pyrilamine specifically bound. […] Biochemical assay results are presented as the percent inhibition of specific binding in Table 2.

[2] = target: T2, human recombinant serotonin (5-Hydroxytryptamine) 5-HT7 receptor (Homo sapiens, UniProt P34969); experiment: Serotonin 5-HT7 radioligand binding ([3H]LSD); settings: compound at 0.1 μM; read-out: Inhibition of ligand binding, Serotonin 5-HT7 (percent inhibition of specific binding)
T2 construct: expressed in transfected cells; host or cells: CHO
T2 sequence (P34969 whole entry): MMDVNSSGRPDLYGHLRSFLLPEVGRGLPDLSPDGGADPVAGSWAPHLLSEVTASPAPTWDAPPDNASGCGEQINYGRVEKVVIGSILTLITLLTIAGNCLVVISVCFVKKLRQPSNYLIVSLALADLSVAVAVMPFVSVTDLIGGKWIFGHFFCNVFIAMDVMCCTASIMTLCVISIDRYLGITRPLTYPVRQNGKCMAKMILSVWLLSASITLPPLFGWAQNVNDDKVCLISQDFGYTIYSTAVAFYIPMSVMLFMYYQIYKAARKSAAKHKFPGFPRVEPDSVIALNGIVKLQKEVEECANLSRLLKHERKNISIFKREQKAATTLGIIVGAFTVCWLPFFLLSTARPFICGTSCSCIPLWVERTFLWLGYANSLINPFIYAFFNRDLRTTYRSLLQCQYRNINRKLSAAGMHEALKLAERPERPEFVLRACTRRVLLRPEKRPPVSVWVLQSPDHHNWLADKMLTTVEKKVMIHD
Description: Lysergic acid diethylamide (LSD) for 120 min. at 25° C. […] Receptor proteins were filtered and washed, the filters were then counted to determine [^3H]LSD specifically bound.

[3] = target: T3, human recombinant serotonin (5-Hydroxytryptamine) 5-HT2A receptor (Homo sapiens, UniProt P28223); experiment: Serotonin 5-HT2A radioligand binding ([3H]Ketanserin); settings: compound at 0.1 μM; read-out: Inhibition of ligand binding, Serotonin 5-HT2A (percent inhibition of specific binding)
T3 construct: expressed in transfected cells; host or cells: CHO-K1
T3 sequence (P28223 whole entry): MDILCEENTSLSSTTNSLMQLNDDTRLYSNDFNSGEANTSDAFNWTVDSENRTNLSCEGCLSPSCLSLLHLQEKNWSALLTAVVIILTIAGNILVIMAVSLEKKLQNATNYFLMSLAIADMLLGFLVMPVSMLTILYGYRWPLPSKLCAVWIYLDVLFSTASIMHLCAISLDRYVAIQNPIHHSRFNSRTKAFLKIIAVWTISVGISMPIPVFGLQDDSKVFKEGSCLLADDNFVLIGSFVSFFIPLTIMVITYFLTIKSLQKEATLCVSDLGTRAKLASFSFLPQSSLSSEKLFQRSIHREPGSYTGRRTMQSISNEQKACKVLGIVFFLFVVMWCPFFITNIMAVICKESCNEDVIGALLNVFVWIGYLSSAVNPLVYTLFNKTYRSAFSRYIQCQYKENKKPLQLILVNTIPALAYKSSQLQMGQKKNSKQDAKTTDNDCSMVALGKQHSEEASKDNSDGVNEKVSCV
Description: Compounds of the invention were incubated with 0.5 nM [^3H]Ketanserin for 60 min at 25° C. Non-specific binding was estimated in the presence of 1 μM Mianserin. Receptor proteins were filtered and washed, the filters were then counted to determine [^3H]Ketanserin specifically bound.

[4] = target: T4, human recombinant adrenergic α2C receptor (Homo sapiens, UniProt P18825); experiment: Adrenergic α2C radioligand binding ([3H]MK-912); settings: read-out: Adrenergic (0.1 μM) a2C, percent inhibition of specific binding; compound at 0.1 μM; 1 nM [3H]MK-912
T4 construct: expressed in transfected cells; host or cells: insect Sf9 cells
T4 sequence (P18825 1-462): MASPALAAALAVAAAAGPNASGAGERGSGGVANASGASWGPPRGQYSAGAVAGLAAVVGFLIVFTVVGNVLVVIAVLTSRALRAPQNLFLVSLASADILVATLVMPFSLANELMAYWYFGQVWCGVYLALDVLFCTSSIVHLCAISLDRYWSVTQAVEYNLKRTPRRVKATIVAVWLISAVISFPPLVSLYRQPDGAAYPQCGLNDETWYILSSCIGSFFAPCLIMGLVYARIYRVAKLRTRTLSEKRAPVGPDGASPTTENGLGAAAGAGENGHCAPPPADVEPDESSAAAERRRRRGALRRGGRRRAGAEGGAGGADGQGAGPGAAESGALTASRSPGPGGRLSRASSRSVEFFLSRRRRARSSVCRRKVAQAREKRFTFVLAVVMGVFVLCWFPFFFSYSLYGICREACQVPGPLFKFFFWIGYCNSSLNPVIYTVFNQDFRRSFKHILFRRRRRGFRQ
Description: To evaluate in radioligand binding assays the activity of compounds of the invention, human recombinant adrenergic α2C receptor expressed in insect Sf9 cells (Uhlen, S. et al, J. Pharmacol. Exp. Ther. 271:1558, 1994) in a modified Tris-HCl buffer (50 mM Tris-HCl, pH 7.4, 12.5 mM MgCl2, 2 mM EDTA) was used. Compounds of the invention were incubated with 1 nM [^3H]MK-912 for 60 min at 25° C. Non-specific binding was estimated in the presence of 10 μM WB-4101. Receptor proteins were filtered and washed, the filters were then counted to determine [^3H]MK-912 specifically bound. […] Compounds of the invention were tested in this biochemical assay and percent inhibition of specific binding was determined.

[5] = target: T5, human recombinant serotonin (5-Hydroxytryptamine) 5-HT2C receptor (Homo sapiens, UniProt P28335); experiment: Serotonin 5-HT2C radioligand binding ([3H]Mesulergine); settings: compound at 0.1 μM; read-out: Inhibition of ligand binding, Serotonin 5-HT2C (percent inhibition of specific binding)
T5 construct: expressed in transfected cells; host or cells: CHO-K1
T5 sequence (P28335 33-458): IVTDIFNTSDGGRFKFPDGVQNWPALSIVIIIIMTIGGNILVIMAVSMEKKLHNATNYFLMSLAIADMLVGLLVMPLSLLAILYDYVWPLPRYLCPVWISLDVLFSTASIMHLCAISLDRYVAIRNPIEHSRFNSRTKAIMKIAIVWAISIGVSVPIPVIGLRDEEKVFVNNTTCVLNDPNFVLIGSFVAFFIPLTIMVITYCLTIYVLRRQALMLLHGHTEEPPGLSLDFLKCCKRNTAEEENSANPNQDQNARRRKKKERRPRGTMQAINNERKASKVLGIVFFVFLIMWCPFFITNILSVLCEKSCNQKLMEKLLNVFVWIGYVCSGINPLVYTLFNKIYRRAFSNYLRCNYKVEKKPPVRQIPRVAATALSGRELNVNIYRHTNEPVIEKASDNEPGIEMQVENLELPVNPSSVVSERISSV
Description: Compounds of the invention were incubated with 1 nM [^3H]Mesulergine for 60 min at 25° C. Non-specific binding was estimated in the presence of 1 μM Mianserin. Receptor proteins were filtered and washed, the filters were then counted to determine [^3H]Mesulergine specifically bound.

[6] = target: T6, human recombinant dopamine D2L receptor (Homo sapiens, UniProt P14416); experiment: Dopamine D2L radioligand binding ([3H]Spiperone); settings: read-out: Dopamine D2L (1 μM), percent inhibition of specific binding; compound at 1 μM; 0.16 nM [3H]Spiperone
T6 construct: expressed in transfected cells; host or cells: CHO
T6 sequence (P14416 whole entry): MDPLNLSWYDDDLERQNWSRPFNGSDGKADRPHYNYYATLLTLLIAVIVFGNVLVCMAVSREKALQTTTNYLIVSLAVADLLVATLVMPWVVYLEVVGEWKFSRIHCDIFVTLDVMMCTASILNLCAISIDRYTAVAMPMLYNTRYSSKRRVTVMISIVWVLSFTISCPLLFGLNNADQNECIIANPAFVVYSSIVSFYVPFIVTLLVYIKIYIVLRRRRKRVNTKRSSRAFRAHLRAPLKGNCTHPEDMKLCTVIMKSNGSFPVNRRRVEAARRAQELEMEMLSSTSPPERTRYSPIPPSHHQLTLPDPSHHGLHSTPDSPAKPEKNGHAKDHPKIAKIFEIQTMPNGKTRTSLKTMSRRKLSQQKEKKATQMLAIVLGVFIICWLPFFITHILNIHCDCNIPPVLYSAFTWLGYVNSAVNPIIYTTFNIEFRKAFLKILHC
Description: Non-specific binding was estimated in the presence of 10 μM Haloperidol. Receptor proteins were filtered and washed, the filters were then counted to determine [^3H]Spiperone specifically bound.

[7] = target: T7, rat adrenergic α1A receptor (Rattus norvegicus, UniProt P43140); experiment: Adrenergic α1A radioligand binding ([3H]Prazosin); settings: read-out: Adrenergic (0.1 μM) a1A, percent inhibition of specific binding; compound at 0.1 μM; 0.25 nM [3H]Prazosin
T7 construct: rat adrenergic α1A receptor obtained from Wistar Rat submaxillary glands; from tissue; host or cells: Wistar rat submaxillary glands
T7 sequence (P43140 1-466): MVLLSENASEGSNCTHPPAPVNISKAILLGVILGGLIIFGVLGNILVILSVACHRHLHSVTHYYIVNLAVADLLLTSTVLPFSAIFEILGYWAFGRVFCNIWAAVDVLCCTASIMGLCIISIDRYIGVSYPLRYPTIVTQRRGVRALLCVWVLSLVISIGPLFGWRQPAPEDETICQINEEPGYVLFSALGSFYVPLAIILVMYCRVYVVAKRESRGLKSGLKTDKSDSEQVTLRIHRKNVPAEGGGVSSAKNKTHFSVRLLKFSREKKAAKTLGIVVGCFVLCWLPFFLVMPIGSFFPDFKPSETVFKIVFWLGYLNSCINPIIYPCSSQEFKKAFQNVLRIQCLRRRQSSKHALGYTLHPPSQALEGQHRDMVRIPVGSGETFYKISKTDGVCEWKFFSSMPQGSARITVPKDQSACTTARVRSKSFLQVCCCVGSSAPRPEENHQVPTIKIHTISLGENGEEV
Description: To evaluate in radioligand binding assays the activity of compounds of the invention, rat adrenergic α1A receptor obtained from Wistar Rat submaxillary glands (Michel, A. et al, Br. J. Pharmacol. 98:883, 1989) in a modified Tris-HCl buffer (50 mM Tris-HCl buffer, pH 7.4, 0.5 mM EDTA) was used. Compounds of the invention were incubated with 0.25 nM [^3H]Prazosin for 60 min at 25° C. Non-specific binding was estimated in the presence of 10 μM phentolamine Receptor proteins were filtered and washed, the filters were then counted to determine [^3H]Prazosin specifically bound. […] Compounds of the invention were tested in this biochemical assay and percent inhibition of specific binding was determined.

[8] = target: T8, human recombinant serotonin (5-Hydroxytryptamine) 5-HT6 receptor (Homo sapiens, UniProt P50406); experiment: Serotonin 5-HT6 radioligand binding ([3H]LSD); settings: compound at 0.1 μM; read-out: Inhibition of ligand binding, Serotonin 5-HT6 (percent inhibition of specific binding)
T8 construct: expressed in transfected cells; host or cells: HeLa
T8 sequence (P50406 whole entry): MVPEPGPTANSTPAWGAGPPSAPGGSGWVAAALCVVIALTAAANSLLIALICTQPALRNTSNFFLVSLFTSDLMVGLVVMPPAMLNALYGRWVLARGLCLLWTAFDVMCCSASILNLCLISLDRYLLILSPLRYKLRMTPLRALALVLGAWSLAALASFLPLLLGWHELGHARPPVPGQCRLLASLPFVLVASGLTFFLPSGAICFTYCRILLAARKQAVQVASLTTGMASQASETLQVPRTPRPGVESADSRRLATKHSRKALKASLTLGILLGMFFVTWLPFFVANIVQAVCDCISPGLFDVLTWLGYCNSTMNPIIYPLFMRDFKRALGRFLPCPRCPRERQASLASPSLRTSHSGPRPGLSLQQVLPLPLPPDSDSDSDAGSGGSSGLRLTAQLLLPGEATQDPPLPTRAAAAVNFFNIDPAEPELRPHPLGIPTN
From the text: Receptor proteins were filtered and washed, the filters were then counted to determine [3H]LSD specifically bound.

| Structure (SMILES) | inhibition at 1 µM [1] [%] | inhibition at 0.1 µM [2] [%] | inhibition at 0.1 µM [3] [%] | inhibition at 0.1 µM [4] [%] | inhibition at 0.1 µM [5] [%] | inhibition at 1 µM [6] [%] | inhibition at 0.1 µM [7] [%] | inhibition at 0.1 µM [8] [%] |
| --- | --- | --- | --- | --- | --- | --- | --- | --- |
| Cc1ccc2c(c1)c1c(n2-c2ccoc2)CCN(C)C1 [Compound 15, 5-furan-3-yl-2,8-dimethyl-2,3,4,5-tetrahydro-1H-pyrido[4,3-b]indole] | 80 | 57 | 72 | 7 | 77 | 19 | 28 | 51 |
| Cc1ccc2c(c1)c1c(n2-c2ccccc2-c2ccc(F)cc2)CCN(C)C1 [Compound 10, 5-(4′-fluorobiphenyl-2-yl)-2,8-dimethyl-2,3,4,5-tetrahydro-1H-pyrido[4,3-b]indole] | 82 | 73 | 93 | 67 | 94 | 26 | 59 | 57 |
| Cc1ccc2c(c1)c1c(n2-c2ccccc2-c2ccncc2)CCN(C)C1 [Compound 5, 2,8-dimethyl-5-(2-pyridin-4-yl-phenyl)-2,3,4,5-tetrahydro-1H-pyrido[4,3-b]indole] | 38 | 64 | 83 | 11 | 81 | 2 | 24 | 26 |
| Cc1ccc2c(c1)c1c(n2-c2cccs2)CCN(C)C1 [Compound 16, 2,8-dimethyl-5-thiophen-2-yl-2,3,4,5-tetrahydro-1H-pyrido[4,3-b]indole] | 86 | 62 | 94 | 17 | 89 | 49 | 7 | 74 |
| Cc1ccc2c(c1)c1c(n2-c2ccccc2)CCN(C)C1 [Compound 1, 2,8-dimethyl-5-phenyl-2,3,4,5-tetrahydro-1H-pyrido[4,3-b]indole] | 70 | 21 | 100 | – | 88 | 67 | – | 63 |
| Cc1ccc2c(c1)c1c(n2-c2cscn2)CCN(C)C1 [Compound 19, 2,8-dimethyl-5-thiazol-4-yl-2,3,4,5-tetrahydro-1H-pyrido[4,3-b]indole] | 59 | 51 | 64 | – | 71 | 14 | – | 15 |
| Cc1ccc2c(c1)c1c(n2-c2ccccc2-c2cccnc2)CCN(C)C1 [Compound 13, 2,8-dimethyl-5-(2-pyridin-3-yl-phenyl)-2,3,4,5-tetrahydro-1H-pyrido[4,3-b]indole] | 72 | 47 | 73 | – | 73 | 21 | – | 14 |
| CN1CCc2c(c3cc(Cl)ccc3n2-c2cscc2-c2ccccc2)C1 [Compound 26] | 91 | 95 | 86 | – | 96 | 47 | – | 61 |
| Cc1ccc2c(c1)c1c(n2-c2cccc3cnccc23)CCN(C)C1 [Compound 9, 5-isoquinolin-5-yl-2,8-dimethyl-2,3,4,5-tetrahydro-1H-pyrido[4,3-b]indole] | 65 | 59 | 54 | – | 77 | 0 | – | 5 |
| Cc1ccc2c(c1)c1c(n2-c2ccc3ccccc3c2)CCN(C)C1 [Compound 12, 2,8-dimethyl-5-naphthalen-2-yl-2,3,4,5-tetrahydro-1H-pyrido[4,3-b]indole] | 24 | 3 | 94 | – | 93 | 84 | – | 63 |
| Cc1ccc2c(c1)c1c(n2-c2ccc(C(F)(F)F)nc2)CCN(C)C1 [Compound 4, 2,8-dimethyl-5-(6-trifluoromethyl-pyridin-3-yl)-2,3,4,5-tetrahydro-1H-pyrido[4,3-b]indole] | -1 | 1 | 67 | – | 73 | 0 | – | 14 |
